The results in this text go back to patent publication US7009050B2, “5-Substituted pyrimidine derivatives of conformationally locked nucleoside analogues” (The United States of America as represented by the …, priority 2000, dated 2006).

≈ marks a conversion by molar mass, not a printed value. Where two headings read alike, the source gives them in different places.

One may read the CC50 as the concentration at which the toxic effect on the cells reaches its halfway point.

For one data set, the system named is herpes viruses. Kind of data set: antiherpes activity of methanocarbathymine conformers (test not specified). The class given is cell-based.
Data set [1] concerns human foreskin fibroblast (HFF) cells.
The next data set has as its system TK − VZV YS/R strain. In words: VZV plaque reduction, TK- VZV YS/R strain. The note with it: read-out: Antiviral activity (Plaque reduction) EC50, TK − VZV YS/R strain. The class given is cell-based, Varicella zoster virus. How it is done:
(§1) The virus plaque reduction assay proceeds generally as follows. […] The drug concentrations utilized are usually 200 down to 0.06 μg/mL. The virus to be used is diluted in MEM containing 10% FBS to a desired concentration which will give 20–30 plaques/well. The media are then aspirated from the wells, and 0.2 mL of virus is added to each well in duplicate with 0.2 mL of media being added to drug toxicity wells. The plates are then incubated for 1 hr with shaking every 15 min. After the incubation period, an equal amount of 1% agarose is added to an equal volume of each drug dilution. […] The drug agarose mixture is applied to each well in 2 mL volume, and the plates are incubated for 3 days, after which the cells are stained with a […] of neutral red. At the end of the 4–6 h incubation period, the stain is aspirated, and plaques are counted using a stereomicroscope at 10× magnification.

The next data set relates to TK + VZV YS strain. In words: VZV plaque reduction, TK+ VZV YS strain. The class given is cell-based, Varicella zoster virus. The note with it: read-out: Antiviral activity (Plaque reduction) EC50, TK + VZV YS strain.
The next data set has as its system TK − VZV 07/1 strain. Kind of data set: VZV plaque reduction, TK- VZV 07/1 strain. The class given is cell-based, Varicella zoster virus. The note with it: read-out: Antiviral activity (Plaque reduction) EC50, TK − VZV 07/1 strain. How it is done:
as §1

The subject of the next data set is TK + VZV OKA strain. Kind of data set: VZV plaque reduction, TK+ VZV OKA strain. The class given is cell-based, Varicella zoster virus. The conditions noted are these: read-out: Antiviral activity (Plaque reduction) EC50, TK + VZV OKA strain. How it is done:
as §1

Data set [2] relates to HSV-1. In words: cytopathogenic effect (CPE) inhibition assay, HSV-1 in HFF. The conditions noted are these: for HSV-1 (HFF) CPE inhib. EC50: HFF cells, CPE inhibition. A general note: Protection from cytopathic effect is a common read-out in antiviral testing.
Data set [3] relates to HSV-2. In words: cytopathogenic effect (CPE) inhibition assay, HSV-2 in HFF. The note with it: HFF cells.
The test system of data set [4] is Cowpox. The note with it: HFF cells; CPE inhibition.
Data set [5] concerns Vaccinia. The note with it: HFF cells; plaque reduction.
The test system of data set [6] is HSV-2. In words: virus plaque reduction assay, HSV-2 in HFF.
Data set [7] concerns HSV-1. Kind of data set: virus plaque reduction assay, HSV-1 in HFF.
For data set [8], the system named is Vaccinia. The note with it: HFF cells; CPE inhibition.
Data set [9] has as its system Cowpox. The note with it: HFF cells; plaque reduction.
Data set [10] in a line: cytotoxicity (cell morphology MCC, cell growth CC50), Table 3. The conditions noted are these: for Cytotoxicity, Cell Morphology (MCC): minimum cytotoxic concentration causing microscopically detectable alteration of cell morphology; for CC50: read-out: Cytotoxicity CC50, cell growth.
The mark [11] stands for this setting: plaque reduction assay, more potent than acyclovir.

As to `Cc1cn([C@@]23C[C@H](O)[C@@H](CO)[C@@H]2C3)c(=O)[nH]c1=O`, the “antiherpes activity (in words)” value with herpes viruses is “inactive”.

Regarding `O=c1[nH]c(=O)n([C@H]2C[C@H](O)[C@]3(CO)C[C@H]23)cc1/C=C/Br` [(N)-MCBVDU (5)], the “HSV-1 (HFF) CPE inhib. CC50” value in data set [1] is more than 100 µg/mL. The “HSV-2 (HFF) CPE inhib. CC50” value in [1] is more than 100 µg/mL. Moreover, the EC50 in the data set on TK − VZV YS/R strain was more than 5 µM; with TK + VZV YS strain it was 0.007 µM; in the data set on TK − VZV 07/1 strain, more than 5 µM; in the data set on TK + VZV OKA strain, 0.005 µM. Also, the “HSV-1 (HFF) CPE inhib. EC50” value with HSV-1 [2] stood at 2.2 µg/mL. In addition, the “HSV-2 (HFF) CPE inhib. EC50” value in the data set with HSV-2 [3] was more than 100 µg/mL. The “SI (CC50/EC50), HSV-2 CPE inhib.” value with HSV-2 [3] worked out at 0.

Turning to `O=c1[nH]c(=O)n(C2CC(O)C3(CO)CC23)cc1Br` (centres unmarked) [(N)-MCdBrU (3)], in data set [1], the “HSV-1 (HFF) CPE inhib. CC50” value is more than 100 µg/mL, the “HSV-1 (HFF) plaque red'n CC50” value is more than 100 µg/mL, the “HSV-2 (HFF) CPE inhib. CC50” value was more than 100 µg/mL and the “HSV-2 (HFF) plaque red'n CC50” value was more than 100 µg/mL. Also, the “Cowpox (HFF) CPE inhib. CC50” value in data set [1] (HFF cells, column of Cowpox CPE inhibition) is more than 100 µg/mL. The “Cowpox (HFF) Plaque red'n CC50” value in data set [1] (HFF cells, column of Cowpox plaque reduction) is more than 100 µg/mL. In data set [1] (HFF cells, column of Vaccinia CPE inhibition), the “Vaccinia (HFF) CPE inhib. CC50” value was more than 100 µg/mL. Further, in [1] (HFF cells, column of Vaccinia plaque reduction), the “Vaccinia (HFF) Plaque red'n CC50” value was more than 100 µg/mL. In the data set on Cowpox [4], the “Cowpox (HFF) CPE inhib. EC50” value worked out at 11.5 µg/mL and the “SI (CC50/EC50), Cowpox CPE inhib.” value worked out at 8.7. For the same compound, the EC50 in the data set on TK − VZV YS/R strain came to 37 µM. Also, the EC50 with TK + VZV YS strain amounted to 0.03 µM. In the data set with Vaccinia [5], the “SI (CC50/EC50), Vaccinia Plaque red'n” value is listed as 38.5 and the “Vaccinia (HFF) Plaque red'n EC50” value is 2.6 µg/mL. The EC50 with TK − VZV 07/1 strain came out at 107 µM. Besides, the EC50 in the data set with TK + VZV OKA strain came to 0.89 µM. Besides, in the data set on HSV-1 [2], the “HSV-1 (HFF) CPE inhib. EC50” value was determined as 0.39 µg/mL. Further, in the data set on HSV-2 [6] (HFF cells, plaque reduction), the “HSV-2 (HFF) plaque red'n EC50” value was found to be 0.12 µg/mL and the “SI (CC50/EC50), HSV-2 plaque red'n” value amounted to 833. Moreover, in the data set with HSV-1 [7] (HFF cells, plaque reduction), the “HSV-1 (HFF) plaque red'n EC50” value came to 0.03 µg/mL and the “SI (CC50/EC50), HSV-1 plaque red'n” value is 3333. For the same compound, in the data set with Vaccinia [8], the “SI (CC50/EC50), Vaccinia CPE inhib.” value was more than 156 and the “Vaccinia (HFF) CPE inhib. EC50” value amounted to 0.64 µg/mL. Besides, in the data set with Cowpox [9], the “Cowpox (HFF) Plaque red'n EC50” value was found to be 3.4 µg/mL and the “SI (CC50/EC50), Cowpox Plaque red'n” value was determined as 29.4. Moreover, in the data set on HSV-2 [3], the “HSV-2 (HFF) CPE inhib. EC50” value worked out at 0.70 µg/mL and the “SI (CC50/EC50), HSV-2 CPE inhib.” value is more than 142.

Turning to `O=c1[nH]c(=O)n([C@H]2C[C@H](O)[C@]3(CO)C[C@H]23)cc1I` [(N)-MCdIU (4)], the “HSV-1 (HFF) CPE inhib. CC50” value in data set [1] (HFF cells, column of HSV-1 CPE inhibition) is more than 100 µg/mL. Further, the “HSV-2 (HFF) CPE inhib. CC50” value in [1] (HFF cells, column of HSV-2 CPE inhibition) is more than 100 µg/mL. Further, the EC50 with TK − VZV YS/R strain was found to be 3 µM. In [10], the “Cytotoxicity, Cell Morphology (MCC)” value is on record as more than 5 μM and the 50% cytotoxic concentration (CC50) was more than 200 µM. For the same compound, the EC50 in the data set with TK − VZV 07/1 strain is more than 5 µM. The EC50 with TK + VZV OKA strain was found to be 0.16 µM. For the same compound, the “HSV-1 (HFF) CPE inhib. EC50” value in the data set with HSV-1 [2] is more than 100 µg/mL. Further, in the data set on HSV-2 [3], the “HSV-2 (HFF) CPE inhib. EC50” value turned out to be 3.3 µg/mL and the “SI (CC50/EC50), HSV-2 CPE inhib.” value came out at 30.3.

Regarding `Cc1cn([C@H]2C[C@H](O)[C@]3(CO)C[C@H]23)c(=O)[nH]c1=O` [(North)-methanocarbathymine, reference compound], the “potency relative to acyclovir against HSV-2” value in the data set with HSV-2 [6] (setting [11]) is on record as 30 times. Moreover, the “potency relative to acyclovir against HSV-1” value in the data set on HSV-1 [7] (setting [11]) came to 30 times.

With `Nc1nc2c(ncn2COCCO)c(=O)[nH]1` [ACV, acyclovir, reference compound], the EC50 in the data set with HSV-1 [2] (Human alphaherpesvirus 1, HFF, read-out: HSV-1 (HFF) CPE inhib. EC50) came out at 0.5 µg/mL (≈ 2.22 µM).

In the case of `O=c1[nH]c(=O)n([C@H]2C[C@H](O)[C@@H](CO)O2)cc1/C=C/Br` [BVDU, reference compound], the EC50 with TK − VZV YS/R strain was more than 150 µM; in the data set on TK + VZV YS strain, 0.008 µM; in the data set on TK − VZV 07/1 strain it was more than 150 µM; with TK + VZV OKA strain it was 0.005 µM. Besides, the “Cytotoxicity, Cell Morphology (MCC)” value in data set [10] is recorded as more than 150 μM. Also, the cytotoxic concentration (CC50) in data set [10] was more than 400 µM.
